Experimental data: article PMC9914855, “UHPLC-MS Phenolic Fingerprinting, Aorta Endothelium Relaxation Effect, Antioxidant, and Enzyme Inhibition Activities of Azara dentata Ruiz & Pav Berries” (Foods, 2023)

Tests used:
[1] = target: butyrylcholinesterase (BChE); parameters: method as in PMID 36552522; conditions: cited from earlier work
tyrosinase = tyrosinase (Agaricus bisporus, UniProt C7FF04); parameters: method as in PMID 36552522; conditions: cited from earlier work
[2] = target: acetylcholinesterase (AChE); parameters: method as in PMID 36552522; conditions: cited from earlier work
human erythrocytes = test: Lipid peroxidation in human erythrocytes; type: cell-based; conditions: at 100 µg/mL
Procedure: The lipid peroxidation in human erythrocytes (LP) assay was performed as described in a previous study with some modifications. Human blood cells (red) were used. After washing, the cells were suspended in phosphate-buffered saline (hemoglobin density of 1 mM). The final cell suspension with different concentrations of the test compounds was incubated and dissolved in DMSO and PBS for 10 min at 37 °C. After incubation, the cells were added to tert-butylhydroperoxide (1 mM) for 15 min at 37 °C. After this, the lipid peroxidation was obtained via the TBARs’ formation. The evaluation was performed in quadruplicate, and the results are shown as the inhibition percentage (IP) of lipid peroxidation in human erythrocytes (IPLP) contrasted to the control of catechin at 100 µg/mL and reported as the average ± SD. Healthy volunteer donors gave their informed consent for inclusion before participating in the study. The protocol assay was conducted in accordance with the Declaration of Helsinki and is included in the approved project by CICIT-CA-UNSJ-Argentina (Project code 80020190100277SJ, N 0591-20-R-UNSJ), referred to as an ethical and environmental safeguard and to preserve the hygiene and safety conditions in the activities to be carried out in laboratories.

amylase = conditions: cited from earlier work
BChE = target: T1, BChE (Homo sapiens, UniProt P06276); conditions: cited from earlier work
T1 construct: purchased Merck, Darmstadt, Germany
T1 sequence (P06276 29-602, species assumed): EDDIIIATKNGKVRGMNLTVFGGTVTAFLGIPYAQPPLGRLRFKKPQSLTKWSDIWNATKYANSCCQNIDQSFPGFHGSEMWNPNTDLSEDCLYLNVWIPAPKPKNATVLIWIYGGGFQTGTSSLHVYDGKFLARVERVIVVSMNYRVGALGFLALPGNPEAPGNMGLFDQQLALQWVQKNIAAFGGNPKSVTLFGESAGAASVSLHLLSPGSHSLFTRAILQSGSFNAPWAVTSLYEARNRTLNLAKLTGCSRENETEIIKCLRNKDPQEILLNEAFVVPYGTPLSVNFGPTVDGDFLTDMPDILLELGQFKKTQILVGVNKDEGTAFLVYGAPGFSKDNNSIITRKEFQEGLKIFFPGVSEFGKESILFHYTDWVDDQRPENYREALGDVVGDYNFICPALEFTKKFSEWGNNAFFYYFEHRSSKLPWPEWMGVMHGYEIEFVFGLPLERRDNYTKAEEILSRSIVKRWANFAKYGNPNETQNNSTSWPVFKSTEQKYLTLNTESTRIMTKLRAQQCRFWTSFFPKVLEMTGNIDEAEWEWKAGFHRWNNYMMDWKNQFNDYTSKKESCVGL

lipase = conditions: cited from earlier work
AChE = target: T2, AChE (Homo sapiens, UniProt P22303); conditions: cited from earlier work
T2 construct: purchased Merck, Darmstadt, Germany
T2 sequence (P22303 32-614): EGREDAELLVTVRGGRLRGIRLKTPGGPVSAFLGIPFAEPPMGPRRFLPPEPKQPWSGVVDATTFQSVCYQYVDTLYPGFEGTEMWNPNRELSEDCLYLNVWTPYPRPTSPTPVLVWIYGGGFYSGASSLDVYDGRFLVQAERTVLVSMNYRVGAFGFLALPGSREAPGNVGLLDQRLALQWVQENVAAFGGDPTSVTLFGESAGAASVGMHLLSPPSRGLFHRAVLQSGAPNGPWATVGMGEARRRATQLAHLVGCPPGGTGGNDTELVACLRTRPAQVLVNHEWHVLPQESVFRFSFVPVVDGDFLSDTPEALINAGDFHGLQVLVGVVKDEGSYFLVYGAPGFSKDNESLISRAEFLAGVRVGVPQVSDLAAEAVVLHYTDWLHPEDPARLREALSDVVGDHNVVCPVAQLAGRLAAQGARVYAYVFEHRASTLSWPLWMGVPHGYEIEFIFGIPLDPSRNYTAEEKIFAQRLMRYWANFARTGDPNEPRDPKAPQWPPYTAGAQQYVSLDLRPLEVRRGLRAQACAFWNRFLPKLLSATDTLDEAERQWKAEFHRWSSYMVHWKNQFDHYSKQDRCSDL

[3] = parameters: method as in PMID 36552522; conditions: read-out: GI50 (cytotoxic); cited from earlier work

tyrosinase, sequence (C7FF04 1-392): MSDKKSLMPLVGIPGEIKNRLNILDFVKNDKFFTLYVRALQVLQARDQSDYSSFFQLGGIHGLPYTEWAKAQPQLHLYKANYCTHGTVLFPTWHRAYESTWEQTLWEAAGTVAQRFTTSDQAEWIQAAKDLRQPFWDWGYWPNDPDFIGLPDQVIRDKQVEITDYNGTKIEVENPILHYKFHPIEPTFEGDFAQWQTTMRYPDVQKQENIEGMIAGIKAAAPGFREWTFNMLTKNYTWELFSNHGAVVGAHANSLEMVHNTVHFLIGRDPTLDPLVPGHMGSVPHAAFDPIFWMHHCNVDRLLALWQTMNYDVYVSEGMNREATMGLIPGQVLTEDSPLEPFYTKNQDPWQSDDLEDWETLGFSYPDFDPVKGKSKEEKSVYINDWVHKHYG

## 2-nor-1,2-secolycoserone [2-nor-1,2-secolycoserone coumarin]
[1]
  BChE IC50: 11.23 ± 0.02 µg/mL
tyrosinase
  tyrosinase IC50: 103.43 ± 16.86 µg/mL
[2]
  AChE inhibition: 1.21 ± 0.03 µg/mL

## O.Oc1cc(O)c2c(c1)O[C@H](c1ccc(O)c(O)c1)[C@@H](O)C2 [catechin]
Human erythrocytes
  IPLP (inhibition percentage of lipid peroxidation in human erythrocytes): 70%

## O=C(/C=C/c1ccc(O)c(O)c1)O[C@@H]1C[C@](O)(C(=O)O)C[C@@H](O)[C@H]1O [chlorogenic acid, Chlorogenic acid]
amylase
  amylase IC50: 498 ± 13 µg/mL
BChE
  IC50: 17.8 µM
lipase
  lipase IC50: 647 µg/mL
AChE
  IC50: 22.6 µM

## N.N.[Cl][Pt][Cl] [cisplatin, reference compound]
[3]
  GI50: 4.9 ± 0.2 µM

## CC1=C(CC/C(C)=C/CO)[C@]2(C)CCCC(C)(C)C2CC1 (stereo partly drawn) [ent-labda-8,13-E-diene-15-ol]
[3]
  GI50: 4.5 ± 0.1 µM
